As a reminder, the pIC50 is −log10 of the IC50, conventionally taken in molar units.

pIC50: −log10 of the molar value.

For this test, the target named is human HPK1 (MAP4K1) (Homo sapiens (Human), UniProt Q92918). In words: HPK1 IC50 Assay. It counts as biochemical. To be noted: recombinant HPK1 kinase domain 0.15 nM, synthetic peptide substrate STK S1, 3 hours at 25° C., time-resolved fluorescence energy transfer; geometric mean of multiple experiments. Here is the method: The enzymatic activity of human HPK1 (MAP4K1) was monitored in a biochemical assay in the presence or absence of compounds and using a synthetic peptide substrate. An increase in phosphorylation of the peptide by HPK1 was indicative of its kinase activity.
Chain of human HPK1 (MAP4K1) (Q92918 17-274): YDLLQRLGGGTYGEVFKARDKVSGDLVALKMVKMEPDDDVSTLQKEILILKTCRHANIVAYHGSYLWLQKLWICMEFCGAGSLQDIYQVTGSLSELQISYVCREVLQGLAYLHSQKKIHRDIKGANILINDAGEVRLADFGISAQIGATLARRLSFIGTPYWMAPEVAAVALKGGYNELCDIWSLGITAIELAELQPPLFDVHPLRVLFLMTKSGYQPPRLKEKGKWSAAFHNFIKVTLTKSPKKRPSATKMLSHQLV
Recombinant HPK1 kinase domain produced via baculovirus infection of insect cells was obtained from Proteros (Proteros Biostructures #PR-0322) and was pre-activated in the presence of 2 mM ATP (Sigma-Aldrich, cat #GE27-2056-01) and 2 mM magnesium chloride for 16 hours at 4° C. The protein reaction mixture was then loaded to a desalting column (Thermo Fisher Scientific, Cat #89889) to remove excess ATP. HPK1 was eluted with buffer containing 20 mM Tris (2-Amino-2-(hydroxymethyl)propane-1,3-diol) pH 8.0, 150 mM NaCl, 2 mM dithiothreitol and 5% glycerol, and was frozen at −80° C. for later use. HPK1 dual phosphorylation was confirmed by mass spectrometry.
Ten nanoliters of test compounds dissolved in DMSO at various concentrations were dispensed into a 384-well ProxiPlate (PerkinElmer #6008289). Five microliters of a solution of recombinant HPK1 diluted in HPK1 kinase assay buffer (50 mM BES [N,N-Bis(2-hydroxyethyl)-2-aminoethanesulfonic acid], pH 7.0; 10 mM magnesium chloride; 0.01% Triton X-100; 1 mM dithiothreitol; 0.01% bovine serum albumin; 0.1 mM sodium orthovanadate) was added to the compound-containing plate and was incubated for 15 minutes at 25° C. Five microliters of a mixture of ATP (Sigma-Aldrich #A6559) and peptide substrate STK Si (Cisbio #61ST1BLC) diluted in HPK1 kinase assay buffer was then added to start the reaction. Final concentrations were 0.15 nM for HPK1, […], and 1 […]. The reaction mixture was incubated at 25° C. for 3 hours and was stopped with the addition of 10 μl of an EDTA (Ethylenediaminetetraacetic acid)-containing detection buffer (Cisbio #62SDBRDF) supplemented with Europium cryptate-labeled anti-phospho-serine/threonine antibodies (Cisbio #62ST1PEJ) and XL665-labeled streptavidin (Cisbio #610SAXLG). The mixture was incubated for 16 hours at room temperature and peptide phosphorylation was measured by time-resolved fluorescence energy transfer (665 nm/620 nm) on an Envision plate reader (PerkinElmer).
Data in Table 1 were normalized based on positive (staurosporine) and negative (DMSO) controls. Least squares curve fittings were performed using a four-parameter variable slope nonlinear regression model. IC50 is defined as the concentration of compound required to inhibit 50% of maximum phosphorylation. IC50 values from multiple experiments were averaged by geometric mean and the standard deviation was calculated.
Regarding `Cc1c[nH]c(/C=C2\C(=O)Nc3c(Cl)cc(-c4cnc5c(c4C)NCCO5)cc32)c1` [Compound C22, (Z)-7-chloro-3-((4-methyl-1H-pyrrol-2-yl)methylene)-5-(8-methyl-2,3-dihydro-1H-pyrido[2,3-b][1,4]oxazin-7-yl)indolin-2-one], the pIC50 was 8.58.

Regarding `Cc1c(-c2cc(Cl)c3c(c2)/C(=C/c2ccc[nH]2)C(=O)N3)cnc2c1NCCO2` [Compound C23, (Z)-3-((1H-pyrrol-2-yl)methylene)-7-chloro-5-(8-methyl-2,3-dihydro-1H-pyrido[2,3-b][1,4]oxazin-7-yl)indolin-2-one], the negative logarithm of the IC50 (pIC50) is 8.70.

As for `Cc1c[nH]c(/C=C2\C(=O)Nc3c(C)cc(-c4cnc5c(c4C)NCCO5)cc32)c1` [Compound C24, (Z)-7-methyl-3-((4-methyl-1H-pyrrol-2-yl)methylene)-5-(8-methyl-2,3-dihydro-1H-pyrido[2,3-b][1,4]oxazin-7-yl)indolin-2-one], the negative-log IC50 (pIC50) was 8.53.

For the compound `Cc1c[nH]c(/C=C2\C(=O)Nc3c(F)cc(-c4cnc5c(c4C)NCCO5)cc32)c1` [Compound C25, (Z)-7-fluoro-3-((4-methyl-1H-pyrrol-2-yl)methylene)-5-(8-methyl-2,3-dihydro-1H-pyrido[2,3-b][1,4]oxazin-7-yl)indolin-2-one], the pIC50 was 10.30.

Regarding `Cc1c(-c2cc(F)c3c(c2)/C(=C/c2ccc[nH]2)C(=O)N3)cnc2c1NCCO2` [Compound C26, (Z)-3-((1H-pyrrol-2-yl)methylene)-7-fluoro-5-(8-methyl-2,3-dihydro-1H-pyrido[2,3-b][1,4]oxazin-7-yl)indolin-2-one], the negative-log IC50 (pIC50) is 10.30.

Take `Cc1c(-c2ccc3c(c2)/C(=C/c2cnn[nH]2)C(=O)N3)cnc2c1NCCO2` [Compound C27, (Z)-3-((1H-1,2,3-triazol-5-yl)methylene)-5-(8-methyl-2,3-dihydro-1H-pyrido[2,3-b][1,4]oxazin-7-yl)indolin-2-one]: the pIC50 is 8.79.

Take `Cc1c[nH]c(/C=C2\C(=O)Nc3ccc(-c4cnc5c(c4C)NCCO5)cc32)c1` [Compound C28, (Z)-3-((4-methyl-H-pyrrol-2-yl)methylene)-5-(8-methyl-2,3-dihydro-1H-pyrido[2,3-b][1,4]oxazin-7-yl)indolin-2-one]: the negative logarithm of the IC50 (pIC50) is 10.30.

For `Cc1c(-c2ccc3c(c2)/C(=C/c2ccc[nH]2)C(=O)N3)cnc2c1NCCO2` [Compound C29, (Z)-3-((1H-pyrrol-2-yl)methylene)-5-(8-methyl-2,3-dihydro-1H-pyrido[2,3-b][1,4]oxazin-7-yl)indolin-2-one], the pIC50 was 10.30.

Take `Cc1c(-c2ccc3c(c2)/C(=C/c2ccn[nH]2)C(=O)N3)cnc2c1NCCO2` [Compound C30, (Z)-3-((1H-pyrazol-5-yl)methylene)-5-(8-methyl-2,3-dihydro-1H-pyrido[2,3-b][1,4]oxazin-7-yl)indolin-2-one]: the negative logarithm of the IC50 (pIC50) is 9.01.

Regarding `Cc1c(-c2ccc3c(c2)/C(=C/c2ncc[nH]2)C(=O)N3)cnc2c1NCCO2` [Compound C31, (Z)-3-((1H-imidazol-2-yl)methylene)-5-(8-methyl-2,3-dihydro-1H-pyrido[2,3-b][1,4]oxazin-7-yl)indolin-2-one], the pIC50 is 9.11.

As for `Cc1c(-c2ccc3c(c2)/C(=C/c2cnc[nH]2)C(=O)N3)cnc2c1NCCO2` [Compound C32, (Z)-3-((1H-imidazol-5-yl)methylene)-5-(8-methyl-2,3-dihydro-1H-pyrido[2,3-b][1,4]oxazin-7-yl)indolin-2-one], the pIC50 was 9.59.

With `Cc1c(-c2ccc3c(c2)/C(=C/c2ncc[nH]2)C(=O)N3)cnc2c1NC(=O)C1(CC1)O2` [Compound C33, (Z)-7′-(3-((1H-imidazol-2-yl)methylene)-2-oxoindolin-5-yl)-8′-methylspiro[cyclopropane-1,3′-pyrido[2,3-b][1,4]oxazin]-2′(1′H)-one], the negative logarithm of the IC50 (pIC50) is 8.25.

As for `Cc1c(-c2ccc3c(c2)/C(=C/c2cnc(C4CC4)[nH]2)C(=O)N3)cnc2c1NCCO2` [Compound C34, (Z)-3-((2-cyclopropyl-1H-imidazol-5-yl)methylene)-5-(8-methyl-2,3-dihydro-1H-pyrido[2,3-b][1,4]oxazin-7-yl)indolin-2-one], the pIC50 was 9.89.

`Cc1c(-c2cc(F)c3c(c2)/C(=C/c2cnc(C4CC4)[nH]2)C(=O)N3)cnc2c1NCCO2` [Compound C35, (Z)-3-((2-cyclopropyl-1H-imidazol-5-yl)methylene)-7-fluoro-5-(8-methyl-2,3-dihydro-1H-pyrido[2,3-b][1,4]oxazin-7-yl)indolin-2-one]: the pIC50 was 10.30.

With `CC/C(=C1/C(=O)Nc2ccc(-c3cnc4c(c3C)NCCO4)cc21)c1cnc[nH]1` [Compound C36, (Z)-3-(1-(1H-imidazol-5-yl)propylidene)-5-(8-methyl-2,3-dihydro-H-pyrido[2,3-b][1,4]oxazin-7-yl)indolin-2-one], the pIC50 is 9.00.

`Cc1cc2c(cc1-c1cnc3c(c1C)NCCO3)/C(=C/c1cc3ccncc3[nH]1)C(=O)N2` [Compound C37, (Z)-3-((1H-pyrrolo[2,3-c]pyridin-2-yl)methylene)-6-methyl-5-(8-methyl-2,3-dihydro-1H-pyrido[2,3-b][1,4]oxazin-7-yl)indolin-2-one]: the negative logarithm of the IC50 (pIC50) was 9.16.

On to `Cc1cc2c(cc1-c1cnc3c(c1C)NCCO3)/C(=C/c1cc3ncccc3[nH]1)C(=O)N2` [Compound C38, (Z)-3-((1H-pyrrolo[3,2-b]pyridin-2-yl)methylene)-6-methyl-5-(8-methyl-2,3-dihydro-1H-pyrido[2,3-b][1,4]oxazin-7-yl)indolin-2-one], for which the negative logarithm of the IC50 (pIC50) was 9.96.

Take `Cc1c(-c2ccc3c(c2)/C(=C/c2cc4cnccc4[nH]2)C(=O)N3)ccc2c1NC(=O)CO2` [Compound C39, (Z)-6-(3-((1H-pyrrolo[3,2-c]pyridin-2-yl)methylene)-2-oxoindolin-5-yl)-5-methyl-2H-benzo[b][1,4]oxazin-3(4H)-one]: the negative-log IC50 (pIC50) is 8.15.

On to `Cc1cc2c(cc1-c1cnc3c(c1C)NCCO3)/C(=C/c1cc3cnccc3[nH]1)C(=O)N2` [Compound C40, (Z)-3-((1H-pyrrolo[3,2-c]pyridin-2-yl)methylene)-6-methyl-5-(8-methyl-2,3-dihydro-1H-pyrido[2,3-b][1,4]oxazin-7-yl)indolin-2-one], for which the pIC50 is 10.15.

As to `Cc1cc2c(cc1-c1cnc3c(c1)NCCO3)/C(=C/c1cc3cnccc3[nH]1)C(=O)N2` [Compound C41, (Z)-3-((1H-pyrrolo[3,2-c]pyridin-2-yl)methylene)-5-(2,3-dihydro-1H-pyrido[2,3-b][1,4]oxazin-7-yl)-6-methylindolin-2-one], the pIC50 was 8.24.

Regarding `Cc1c(-c2cnc3c(c2)NCCO3)cc(F)c2c1/C(=C/c1cc3cnccc3[nH]1)C(=O)N2` [Compound C42, (Z)-3-((1H-pyrrolo[3,2-c]pyridin-2-yl)methylene)-5-(2,3-dihydro-1H-pyrido[2,3-b][1,4]oxazin-7-yl)-7-fluoro-4-methylindolin-2-one], the negative logarithm of the IC50 (pIC50) is 8.03.

`Cc1c(-c2cc3c(cc2F)NC(=O)/C3=C\c2cc3ccncc3[nH]2)cnc2c1NCCO2` [Compound C43, (Z)-3-((1H-pyrrolo[2,3-c]pyridin-2-yl)methylene)-6-fluoro-5-(8-methyl-2,3-dihydro-1H-pyrido[2,3-b][1,4]oxazin-7-yl)indolin-2-one]: the pIC50 is 9.89.

The values are drawn from patent US11453681B2, “Substituted eneoxindoles and uses thereof” (Gilead Sciences, Inc., priority 2019, dated 2022).
